Experimental data published in ChEMBL document CHEMBL1138774, “Potent and selective ketoamide-based inhibitors of cysteine protease, cathepsin K” (J Med Chem, 2004).

Assays:
[1] = target: T1, Cathepsin K (Homo sapiens, UniProt P43235); assay: Inhibitory potency against human Cathepsin K
T1 sequence (P43235 whole entry): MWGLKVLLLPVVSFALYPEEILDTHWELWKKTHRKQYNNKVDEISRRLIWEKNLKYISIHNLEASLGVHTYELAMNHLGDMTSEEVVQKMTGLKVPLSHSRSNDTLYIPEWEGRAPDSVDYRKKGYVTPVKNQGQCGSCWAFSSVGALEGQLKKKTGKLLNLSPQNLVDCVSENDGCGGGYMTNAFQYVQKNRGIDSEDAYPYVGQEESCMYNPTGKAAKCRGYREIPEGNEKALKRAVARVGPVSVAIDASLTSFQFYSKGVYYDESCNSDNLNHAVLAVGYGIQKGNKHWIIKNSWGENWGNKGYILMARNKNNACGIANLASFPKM

[2] = target: Cathepsin (H and K) (Homo sapiens) (UniProt P09668+P43235); assay: Selectivity for human cathepsin H over human cathepsin K; type: protein assay
[3] = target: Cathepsin (L and K) (Homo sapiens) (UniProt P43235+P07711); assay: Selectivity for human cathepsin L over human cathepsin K; type: protein assay
[4] = target: Cathepsin (S and K) (Homo sapiens) (UniProt P25774+P43235); assay: Selectivity for human cathepsin S over human cathepsin K; type: protein assay
[5] = target: Cathepsin (V and K) (Homo sapiens) (UniProt P43235+O60911); assay: Selectivity for human cathepsin V over human cathepsin K; type: protein assay
[6] = target: Cathepsin (B and K) (Homo sapiens) (UniProt P43235+P07858); assay: Selectivity for human cathepsin B over human cathepsin K; type: protein assay

Cathepsin (H and K) (Homo sapiens), sequence (P09668 whole entry, looked up, one chain of several): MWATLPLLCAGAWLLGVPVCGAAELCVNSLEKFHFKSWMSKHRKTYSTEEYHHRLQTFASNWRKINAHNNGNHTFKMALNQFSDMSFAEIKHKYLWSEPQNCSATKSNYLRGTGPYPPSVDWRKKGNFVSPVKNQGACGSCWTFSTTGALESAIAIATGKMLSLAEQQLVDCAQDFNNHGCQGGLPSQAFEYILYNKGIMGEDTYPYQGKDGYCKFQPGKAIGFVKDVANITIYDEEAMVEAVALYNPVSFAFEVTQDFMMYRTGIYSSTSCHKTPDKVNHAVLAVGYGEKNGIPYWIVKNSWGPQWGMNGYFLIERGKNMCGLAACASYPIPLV
Cathepsin (S and K) (Homo sapiens), sequence (P25774 whole entry, looked up, one chain of several): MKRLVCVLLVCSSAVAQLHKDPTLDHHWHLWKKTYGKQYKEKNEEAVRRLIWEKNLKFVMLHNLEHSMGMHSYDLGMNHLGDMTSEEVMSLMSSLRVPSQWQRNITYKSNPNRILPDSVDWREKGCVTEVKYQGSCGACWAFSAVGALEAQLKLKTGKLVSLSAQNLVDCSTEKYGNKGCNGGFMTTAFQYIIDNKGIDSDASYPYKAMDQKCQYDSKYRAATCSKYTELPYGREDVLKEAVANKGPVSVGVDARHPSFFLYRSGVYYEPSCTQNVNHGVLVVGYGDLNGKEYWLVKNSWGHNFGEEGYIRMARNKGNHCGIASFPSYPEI
Cathepsin (L and K) (Homo sapiens), sequence (P07711 whole entry, looked up, one chain of several): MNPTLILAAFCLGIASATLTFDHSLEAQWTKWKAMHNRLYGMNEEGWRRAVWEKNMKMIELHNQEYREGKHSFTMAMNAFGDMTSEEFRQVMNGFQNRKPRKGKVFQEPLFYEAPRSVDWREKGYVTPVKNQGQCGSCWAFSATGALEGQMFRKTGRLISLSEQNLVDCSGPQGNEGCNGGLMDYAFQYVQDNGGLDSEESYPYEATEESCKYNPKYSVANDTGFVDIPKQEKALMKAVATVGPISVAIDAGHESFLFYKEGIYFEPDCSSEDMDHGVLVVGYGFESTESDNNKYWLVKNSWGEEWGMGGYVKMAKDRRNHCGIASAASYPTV
Cathepsin (V and K) (Homo sapiens), sequence (O60911 whole entry, looked up, one chain of several): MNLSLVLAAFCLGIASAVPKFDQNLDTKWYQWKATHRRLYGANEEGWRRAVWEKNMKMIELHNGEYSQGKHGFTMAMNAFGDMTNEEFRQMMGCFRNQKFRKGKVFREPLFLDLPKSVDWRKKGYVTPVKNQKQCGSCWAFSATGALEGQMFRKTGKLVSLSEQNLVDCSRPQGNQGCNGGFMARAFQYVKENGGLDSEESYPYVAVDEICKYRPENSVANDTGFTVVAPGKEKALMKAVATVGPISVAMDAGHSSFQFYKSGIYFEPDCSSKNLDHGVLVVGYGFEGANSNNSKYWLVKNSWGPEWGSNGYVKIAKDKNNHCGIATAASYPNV

CCCC[C@H](NC(=O)OCC1(CC)COC1)C(=O)C(=O)Nc1cc(-c2ccccc2)n[nH]1
IC50 [1]: 0.01 µM

CCCC[C@H](NC(=O)OCC1(CC)CCC1)C(=O)C(=O)Nc1ccnn1CC1CC1
IC50 [1]: 0.051 µM
Selectivity [2]: > 250
Selectivity [3]: > 250
Selectivity [4]: 33
Selectivity [5]: 102
Selectivity [6]: > 250

CCCC[C@H](NC(=O)OCC1(CC)CCC1)C(=O)C(=O)Nc1ccnn1CC(C)C
IC50 [1]: 0.076 µM
Selectivity [2]: > 170
Selectivity [3]: > 170
Selectivity [4]: 14
Selectivity [5]: 89
Selectivity [6]: > 170

CCCC[C@H](NC(=O)OCC1(CC)COC1)C(=O)C(=O)N[C@H](C)c1ccccc1
IC50 [1]: 0.068 µM

CCCC[C@H](NC(=O)OCC1(CC)CCC1)C(=O)C(=O)Nc1ccnn1C1CCC1
IC50 [1]: 0.045 µM
Selectivity [2]: > 280
Selectivity [3]: 270
Selectivity [4]: 14
Selectivity [5]: 49
Selectivity [6]: > 280

CCCC[C@H](NC(=O)OCC1(CC)CCC1)C(=O)C(=O)Nc1ccon1
IC50 [1]: 0.02 µM
